Earlier results as cited in patent US20030045478A1, “Gamma-ketoacid dipeptide derivatives as inhibitors of caspase-3” (priority 2000, published 2003).
pKi: −log10 of the molar value.

Tests used:
[1] = biological target: T1, caspase-3 (Homo sapiens, UniProt P42574)
T1 sequence (P42574 29-175 limits assumed): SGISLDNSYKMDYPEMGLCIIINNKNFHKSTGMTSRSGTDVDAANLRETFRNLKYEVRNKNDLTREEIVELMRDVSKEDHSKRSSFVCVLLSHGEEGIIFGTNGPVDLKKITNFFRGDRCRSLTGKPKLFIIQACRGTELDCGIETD
T1 sequence (P42574 176-277 limits assumed): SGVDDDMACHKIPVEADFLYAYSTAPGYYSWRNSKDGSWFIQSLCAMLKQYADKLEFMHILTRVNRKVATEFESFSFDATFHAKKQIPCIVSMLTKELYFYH

[2] = biological target: T2, caspase-1 (Homo sapiens, UniProt P29466)
T2 sequence (P29466 120-297 limits assumed): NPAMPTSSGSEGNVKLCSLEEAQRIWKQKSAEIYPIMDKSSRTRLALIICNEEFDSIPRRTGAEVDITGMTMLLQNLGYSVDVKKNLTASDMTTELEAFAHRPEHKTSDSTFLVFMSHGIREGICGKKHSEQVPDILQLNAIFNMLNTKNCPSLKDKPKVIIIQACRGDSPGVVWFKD
T2 sequence (P29466 317-404 limits assumed): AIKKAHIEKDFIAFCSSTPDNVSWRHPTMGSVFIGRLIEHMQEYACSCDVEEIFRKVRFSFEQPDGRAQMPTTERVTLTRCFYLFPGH

Ac-YVAD-CHO
pKi [1]: 4.92
pKi [2]: > 9.00
